Where two headings read alike, the source gives them in different places.
How the values were obtained:
Recombinant human FGFR1 = Recombinant human FGFR1 (Homo sapiens, UniProt P11362); assay: Transcreener Kinase Assay of FGFR1; assay type: biochemical
Outline: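 Recombinant human FGFR1 was reacted with Poly E4Y substrate and ATP for 45 min at 28 °C, with compounds at 1 to 0.0005 µM in 1% DMSO final. Inhibition is relative to the DMSO control, with IC50 from a curve fit.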

Recombinant human FGFR2 = Recombinant human FGFR2 (Homo sapiens, UniProt P21802); assay: Transcreener Kinase Assay of FGFR2; assay type: biochemical
FGFR3 kinase = FGFR3 kinase (Homo sapiens, UniProt P22607); assay: Z-Lyte Kinase Assay of FGFR3; assay type: biochemical
Outline: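 Z-LYTE FRET assay, kinase 0.7 μg/ml with Tyr 4 peptide 4 μM (P/K solution), ATP diluted to 300 uM in 1.33× buffer; compound final 1 to 0.00046 μM, 2% DMSO.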

KG-1 = assay: Cellular Proliferation Assay (Cell Counting Kit-8), KG-1; assay type: cell-based; conditions: Homo sapiens; KG-1 cells, 72 hours; read-out: KG1 IC50
Outline: (§1)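 Seeding per well: KG-1 30000, SNU-16 5000, RT-112 1000 cells. After 24 h an 8-point series (working dilutions 10 to 0.004 μM in 5% DMSO) was added for 72 h at 37 °C, 5% CO2. CCK-8 OD450 after 1 h, corrected for media background and normalised to untreated cells, gave IC50.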

SNU-16 = assay: Cellular Proliferation Assay (Cell Counting Kit-8), SNU-16; assay type: cell-based; conditions: Homo sapiens; SNU-16 cells, 72 hours
Outline: as §1

RT-112 = assay: Cellular Proliferation Assay (Cell Counting Kit-8), RT-112; assay type: cell-based; conditions: Homo sapiens; RT-112 cells, 72 hours
Outline: as §1

Recombinant human FGFR2, sequence (P21802 22-821): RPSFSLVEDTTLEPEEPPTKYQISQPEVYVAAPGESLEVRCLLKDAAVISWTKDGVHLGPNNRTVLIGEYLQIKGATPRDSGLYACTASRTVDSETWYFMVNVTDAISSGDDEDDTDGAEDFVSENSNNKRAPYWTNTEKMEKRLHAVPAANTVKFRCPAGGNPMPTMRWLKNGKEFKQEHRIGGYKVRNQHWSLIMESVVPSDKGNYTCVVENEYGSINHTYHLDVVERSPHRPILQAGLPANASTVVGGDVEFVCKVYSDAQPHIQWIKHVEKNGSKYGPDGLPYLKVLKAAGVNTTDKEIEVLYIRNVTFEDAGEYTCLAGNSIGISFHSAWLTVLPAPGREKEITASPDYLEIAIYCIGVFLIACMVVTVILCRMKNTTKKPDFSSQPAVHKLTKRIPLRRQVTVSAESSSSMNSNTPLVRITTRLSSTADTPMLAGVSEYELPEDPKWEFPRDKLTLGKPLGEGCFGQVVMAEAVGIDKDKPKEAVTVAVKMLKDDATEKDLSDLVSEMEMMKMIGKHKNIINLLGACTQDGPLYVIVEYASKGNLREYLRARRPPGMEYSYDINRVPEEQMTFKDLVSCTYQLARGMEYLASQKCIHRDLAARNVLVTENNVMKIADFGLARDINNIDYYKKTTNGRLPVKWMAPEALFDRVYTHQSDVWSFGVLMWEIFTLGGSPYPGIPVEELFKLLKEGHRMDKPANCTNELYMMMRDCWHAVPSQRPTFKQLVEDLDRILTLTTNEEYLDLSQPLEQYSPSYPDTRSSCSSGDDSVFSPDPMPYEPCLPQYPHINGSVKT
FGFR3 kinase, sequence (P22607 23-806): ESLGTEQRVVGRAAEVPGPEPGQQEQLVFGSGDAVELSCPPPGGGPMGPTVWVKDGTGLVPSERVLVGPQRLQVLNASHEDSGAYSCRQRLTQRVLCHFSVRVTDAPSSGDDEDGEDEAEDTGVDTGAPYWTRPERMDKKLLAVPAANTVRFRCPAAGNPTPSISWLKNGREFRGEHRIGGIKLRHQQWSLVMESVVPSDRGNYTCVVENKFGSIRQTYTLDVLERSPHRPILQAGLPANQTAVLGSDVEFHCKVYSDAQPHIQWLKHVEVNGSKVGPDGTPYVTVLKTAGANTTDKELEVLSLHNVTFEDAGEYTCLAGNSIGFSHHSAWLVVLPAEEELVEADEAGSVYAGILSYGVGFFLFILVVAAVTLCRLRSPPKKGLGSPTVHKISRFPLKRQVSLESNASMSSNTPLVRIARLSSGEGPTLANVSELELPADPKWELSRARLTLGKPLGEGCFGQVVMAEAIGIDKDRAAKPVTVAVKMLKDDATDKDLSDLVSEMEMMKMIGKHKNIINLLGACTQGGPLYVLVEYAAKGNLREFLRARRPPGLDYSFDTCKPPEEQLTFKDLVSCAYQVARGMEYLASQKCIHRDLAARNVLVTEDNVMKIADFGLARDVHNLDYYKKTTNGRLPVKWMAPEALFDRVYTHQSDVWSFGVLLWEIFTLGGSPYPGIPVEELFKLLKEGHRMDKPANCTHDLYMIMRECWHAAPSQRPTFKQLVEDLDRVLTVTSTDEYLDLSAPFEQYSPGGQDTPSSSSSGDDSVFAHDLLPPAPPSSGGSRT
Recombinant human FGFR1, sequence (P11362 22-822): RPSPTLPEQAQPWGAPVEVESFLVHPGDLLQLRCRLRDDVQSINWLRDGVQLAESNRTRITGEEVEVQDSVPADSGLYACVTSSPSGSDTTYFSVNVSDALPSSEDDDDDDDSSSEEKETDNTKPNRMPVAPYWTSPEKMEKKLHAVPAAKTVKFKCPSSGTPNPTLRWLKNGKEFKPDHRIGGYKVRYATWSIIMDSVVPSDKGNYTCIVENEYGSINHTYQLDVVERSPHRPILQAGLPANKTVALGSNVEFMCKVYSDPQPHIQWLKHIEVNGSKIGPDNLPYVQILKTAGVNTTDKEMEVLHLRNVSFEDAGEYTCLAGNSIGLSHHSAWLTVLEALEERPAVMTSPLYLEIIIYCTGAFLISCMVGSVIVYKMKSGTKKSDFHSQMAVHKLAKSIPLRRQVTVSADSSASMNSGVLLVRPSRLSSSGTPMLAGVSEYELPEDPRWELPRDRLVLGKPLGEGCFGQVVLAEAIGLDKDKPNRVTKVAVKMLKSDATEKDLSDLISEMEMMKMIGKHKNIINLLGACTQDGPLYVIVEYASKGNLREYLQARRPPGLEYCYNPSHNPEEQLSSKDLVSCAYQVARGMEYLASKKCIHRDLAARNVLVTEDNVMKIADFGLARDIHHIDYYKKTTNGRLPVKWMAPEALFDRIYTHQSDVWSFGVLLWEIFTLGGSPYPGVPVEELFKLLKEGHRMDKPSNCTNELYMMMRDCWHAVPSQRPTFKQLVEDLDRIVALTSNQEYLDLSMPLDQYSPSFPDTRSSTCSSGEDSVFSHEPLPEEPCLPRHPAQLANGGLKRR

SMILES | IC50 (Recombinant human FGFR1; read-out: FGFR1 (FP) IC50) [nM] | IC50 (Recombinant human FGFR2; read-out: FGFR2 (FP) IC50) [nM] | IC50 (FGFR3 kinase) [nM] | IC50 (KG-1) [nM] | IC50 (SNU-16) [nM] | IC50 (RT-112) [nM] | IC50 (Recombinant human FGFR1; FP) [nM] | IC50 (Recombinant human FGFR2; FP) [nM] | IC50 (FGFR3 kinase; Z-lyte) [nM]
CNC(=O)c1cc(COc2cnc(Nc3ccc(-n4cncn4)cc3)nc2)c(F)c(OC)c1 [Compound 221] | 34 | 11 | 37 | 35 | 27 | 72 |  |  | 
CNC(=O)c1cc(COc2cnc(Nc3ccc([C@H]4CCCNC4)nc3)nc2)c(Cl)c(OC)c1 [Compound 245] | 16 | 17 | 18 | 533 | 136 | 581 |  |  | 
CNC(=O)c1cc(COc2cnc(Nc3cccc(CCN4CCN(CCOC)CC4)c3)nc2)c(F)c(OC)c1 [Compound 301] |  |  |  | 24 | 11 | 37 | 9 | 6 | 10
CCN1[C@H](C)CN(c2ccc(Nc3ncc(OCc4cc(C(=O)NC)cc(OC)c4F)cn3)cn2)C[C@@H]1C [Compound 281] |  |  |  | 9 | 14 | 37 | 19 | 14 | 19
CCCN1CC(c2ccc(Nc3ncc(OCc4cc(C(=O)NC)cc(OC)c4F)cn3)cc2)C1 [Compound 240] | 34 | 23 | 23 | 23 | 39 | 56 |  |  | 
CNC(=O)c1cc(COc2cnc(Nc3ccc(-n4ccnn4)cc3)nc2)c(F)c(OC)c1 [Compound 222] | 39 | 12 | 40 | 52 | 34 | 83 |  |  | 
CCN1CCC(c2ccc(Nc3ncc(OCc4cc(C(=O)NC)cc(OC)c4F)cn3)cc2OC)CC1 [Compound 280] |  |  |  | 191 | 7 | 29 | 27 | 18 | 16
